Assay results taken from patent US9187472B2 (AbbVie Inc., priority 2012, dated 2015).

Assays:
[1] = target: NAMPT (human, recombinant, C-terminally His-tagged) (Homo sapiens, UniProt P43490); experiment: Time-Resolved Fluorescence Resonance Energy Transfer (TR-FRET) Binding Assay of NAMPT; details: without substrates; 6.8 nM NAMPT, 200 nM probe, 3 hours equilibration
Procedure: Determination of the utility of compounds having Formula (I) as binders to and inhibitors of NAMPT was performed using Time-Resolved Fluorescence Resonance Energy Transfer (TR-FRET) binding assays.
Time-Resolved Fluorescence Resonance Energy Transfer (TR-FRET) Binding Assay of NAMPT
Test compounds were serially diluted (typically 11 half log dilutions) in neat DMSO to 50× final concentrations prior to dilution with assay buffer (50 mM HEPES (NaOH), pH 7.5, 100 mM NaCl, 10 mM MgCl2, 1 mM DTT, 1% Glycerol) to 3× and 6% DMSO. Six μL were transferred to 384-well low-volume plates (Owens Corning #3673). To this, […] of a 1.5× solution containing enzyme, probe and antibody were added. Final concentrations in the 18 μL, reactions were 1× assay buffer, 2% DMSO, 6.8 nM NAMPT (human, recombinant, C-terminally His-tagged), 200 nM probe (a potent nicotinamide-competitive inhibitor conjugated to Oregon Green 488) and 1 nM Tb-anti-His antibody (Invitrogen # PV5895). Reactions were equilibrated at room temperature for 3 hours prior to reading on an Envision multi-label plate reader (Perkin Elmer; Ex=337 nm, Em=520 and 495 nm). Time-resolved FRET ratios (Em520/Em495) were normalized to controls, plotted as a function of compound concentration and fit with the four-parameter logistic equation to determine IC50s.

NAMPT = NAMPT (Homo sapiens, UniProt P43490); experiment: TR-FRET Binding Assay of NAMPT with PRPP; details: with 200 μM PRPP and 2.5 mM ATP; 2 nM NAMPT, 2 nM probe, 16 hours equilibration
Procedure: Time-Resolved Fluorescence Resonance Energy Transfer (TR-FRET) Binding Assay of NAMPT with PRPP
Compound handling and data processing were identical to the assay in the absence of substrates (above). Final concentrations were 1× assay buffer, 2% DMSO, 2 nM NAMPT, 2 nM probe, 1 nM Tb-anti-His antibody (Invitrogen # PV5895), 200 μM PRPP and 2.5 mM ATP. Reactions were equilibrated for 16 hours prior to measurement to allow for potential enzymatic modification of test compounds.

PC3 cells = experiment: NAMPT Cell Proliferation Assay; type: cell-based; details: Homo sapiens, PC-3, 120 h, 5 days incubation, cell viability by Cell Titer Glo
How it was run: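 Following overnight attachment in RPMI with 10% heat-inactivated FBS, PC3 cells at 500 per well receive compounds spanning 10 μM down to 1×10^−5 μM. Growth is assessed by luminescent viability read after 5 days.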

NAMPT, sequence (P43490 whole entry): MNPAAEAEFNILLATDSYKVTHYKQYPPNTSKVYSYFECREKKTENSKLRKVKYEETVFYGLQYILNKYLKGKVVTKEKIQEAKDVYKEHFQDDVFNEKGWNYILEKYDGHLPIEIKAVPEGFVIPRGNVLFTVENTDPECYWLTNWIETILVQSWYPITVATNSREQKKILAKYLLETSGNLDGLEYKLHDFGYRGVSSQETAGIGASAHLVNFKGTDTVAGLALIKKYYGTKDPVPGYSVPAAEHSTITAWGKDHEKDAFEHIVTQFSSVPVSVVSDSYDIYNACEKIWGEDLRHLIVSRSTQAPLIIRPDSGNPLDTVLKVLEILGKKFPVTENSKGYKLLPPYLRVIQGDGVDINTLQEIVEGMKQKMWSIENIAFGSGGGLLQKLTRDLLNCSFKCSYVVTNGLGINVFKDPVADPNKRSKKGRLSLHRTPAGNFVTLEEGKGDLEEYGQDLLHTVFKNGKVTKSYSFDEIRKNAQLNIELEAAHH
NAMPT (human, recombinant, C-terminally His-tagged), sequence (P43490 whole entry): as above

| Structure (SMILES) | IC50 [1] [nM] | IC50 (NAMPT) [nM] | IC50 (PC3 cells) [nM] |
| --- | --- | --- | --- |
| CC(C)CC(=O)N(Cc1ccc(C#N)cc1)c1ncc(C(=O)NCc2ccc3nccn3c2)s1 [Example 55, 2-[(4-cyanobenzyl)(3-methylbutanoyl)amino]-N-(imidazo[1,2-a]pyridin-6-ylmethyl)-1,3-thiazole-5-carboxamide] | 364 | 1.37 | 14.6 |
| COCCC(=O)N(Cc1ccc(C#N)cc1)c1ncc(C(=O)NCc2ccc3nccn3c2)s1 [Example 56, 2-[(4-cyanobenzyl)(3-methoxypropanoyl)amino]-N-(imidazo[1,2-a]pyridin-6-ylmethyl)-1,3-thiazole-5-carboxamide] | 158 | 1.07 | 8.86 |
| CC(C)(C)OC(=O)N1CCC(CCCCNC(=O)Nc2ccc3nccn3c2)CC1 [Example 58, tert-butyl 4-{4-[(imidazo[1,2-a]pyridin-6-ylcarbamoyl)amino]butyl}piperidine-1-carboxylate] | 523 | 1.43 | 52.6 |
| CC(C)CCNC(=O)c1ccc(NC(=O)NCc2ccc3nccn3c2)cc1 [Example 59, 4-{[(imidazo[1,2-a]pyridin-6-ylmethyl)carbamoyl]amino}-N-(3-methylbutyl)benzamide] | 222 | 0.695 | 143 |
| O=C(CC1CCCC1)Nc1ccc(NC(=O)NCc2ccc3nccn3c2)cc1 [Example 60, 2-cyclopentyl-N-(4-{[(imidazo[1,2-a]pyridin-6-ylmethyl)carbamoyl]amino}phenyl)acetamide] | 8.61 | 1.49 | 9.58 |
| COCCC(=O)N(CCC(C)C)c1ncc(C(=O)NCc2ccc3nccn3c2)s1 [Example 61, N-(imidazo[1,2-a]pyridin-6-ylmethyl)-2-[(3-methoxypropanoyl)(3-methylbutyl)amino]-1,3-thiazole-5-carboxamide] | 78.2 | 0.549 | 6.01 |
| CC(C)OCC(=O)N1CCC(CCCCNC(=O)Nc2ccc3nccn3c2)CC1 [Example 62, 1-imidazo[1,2-a]pyridin-6-yl-3-(4-{1-[(propan-2-yloxy)acetyl]piperidin-4-yl}butyl)urea] | 250 | 0.456 | 16.5 |
| O=C(NCCCCC1CCN(C(=O)C2COCCO2)CC1)Nc1ccc2nccn2c1 (stereo not drawn) [Example 63, 1-{4-[1-(1,4-dioxan-2-ylcarbonyl)piperidin-4-yl]butyl}-3-imidazo[1,2-a]pyridin-6-ylurea] | 636 | 0.283 | 16.8 |
| O=C(NCCCCC1CCN(C(=O)CC2CC2)CC1)Nc1ccc2nccn2c1 [Example 64, 1-{4-[1-(cyclopropylacetyl)piperidin-4-yl]butyl}-3-imidazo[1,2-a]pyridin-6-ylurea] | 518 | 0.495 | 19.8 |
| O=C(NCCCCC1CCN(C(=O)CCC(F)(F)F)CC1)Nc1ccc2nccn2c1 [Example 65, 1-imidazo[1,2-a]pyridin-6-yl-3-{4-[1-(4,4,4-trifluorobutanoyl)piperidin-4-yl]butyl}urea] | 773 | 0.685 | 65.6 |
| O=C(NCCCCC1CCN(C(=O)C2CCCC2)CC1)Nc1ccc2nccn2c1 [Example 68, 1-{4-[1-(cyclopentylcarbonyl)piperidin-4-yl]butyl}-3-imidazo[1,2-a]pyridin-6-ylurea] | 386 | 0.476 | 53.8 |
| O=C(NCCCCC1CCN(C(=O)C2CCOCC2)CC1)Nc1ccc2nccn2c1 [Example 69, 1-imidazo[1,2-a]pyridin-6-yl-3-{4-[1-(tetrahydro-2H-pyran-4-ylcarbonyl)piperidin-4-yl]butyl}urea] | 676 | 0.268 | 16.6 |
| COCCOCC(=O)N1CCC(CCCCNC(=O)Nc2ccc3nccn3c2)CC1 [Example 70, 1-imidazo[1,2-a]pyridin-6-yl-3-(4-{1-[(2-methoxyethoxy)acetyl]piperidin-4-yl}butyl)urea] | 710 | 0.616 | 27.8 |
| O=C(NCCCCC1CCN(C(=O)CN2CCOCC2)CC1)Nc1ccc2nccn2c1 [Example 71, 1-imidazo[1,2-a]pyridin-6-yl-3-{4-[1-(morpholin-4-ylacetyl)piperidin-4-yl]butyl}urea] | 754 | 0.348 | 66.7 |
| O=C(NCCCCC1CCN(C(=O)C2CCOC2)CC1)Nc1ccc2nccn2c1 (stereo not drawn) [Example 72, 1-imidazo[1,2-a]pyridin-6-yl-3-{4-[1-(tetrahydrofuran-3-ylcarbonyl)piperidin-4-yl]butyl}urea] | 851 | 0.536 | 65.9 |
| O=C(NCCCCC1CCN(C(=O)CC2CCOC2)CC1)Nc1ccc2nccn2c1 (stereo not drawn) [Example 73, 1-imidazo[1,2-a]pyridin-6-yl-3-{4-[1-(tetrahydrofuran-3-ylacetyl)piperidin-4-yl]butyl}urea] | 605 | 0.426 | 59.5 |
| O=C(NCCCCC1CCN(C(=O)C2CCCO2)CC1)Nc1ccc2nccn2c1 (stereo not drawn) [Example 74, 1-imidazo[1,2-a]pyridin-6-yl-3-{4-[1-(tetrahydrofuran-2-ylcarbonyl)piperidin-4-yl]butyl}urea] | 356 | 0.222 | 14 |
| CC(C)Cn1cc(-c2ccc(C(=O)NCc3ccc4nccn4c3)s2)cn1 [Example 75, N-(imidazo[1,2-a]pyridin-6-ylmethyl)-5-[1-(2-methylpropyl)-1H-pyrazol-4-yl]thiophene-2-carboxamide] | 12.2 | 0.445 | 1.49 |
| O=C(Cc1ccc(NC(=O)CC2CCCC2)cc1)Nc1ccc2nccn2c1 [Example 76, 2-cyclopentyl-N-{4-[2-(imidazo[1,2-a]pyridin-6-ylamino)-2-oxoethyl]phenyl}acetamide] | 993 | 0.739 | 185 |
| O=C(CC1CCCO1)Nc1ccc(C(=O)NCc2ccc3nccn3c2)cc1 (stereo not drawn) [Example 77, N-(imidazo[1,2-a]pyridin-6-ylmethyl)-4-[(tetrahydrofuran-2-ylacetyl)amino]benzamide] | 56.1 | 2.88 | 14.2 |
| O=C(CC1CCOC1)Nc1ccc(C(=O)NCc2ccc3nccn3c2)cc1 (stereo not drawn) [Example 78, N-(imidazo[1,2-a]pyridin-6-ylmethyl)-4-[(tetrahydrofuran-3-ylacetyl)amino]benzamide] | 56.5 | 2.4 | 40.7 |
| O=C(CC1CCOCC1)Nc1ccc(C(=O)NCc2ccc3nccn3c2)cc1 [Example 79, N-(imidazo[1,2-a]pyridin-6-ylmethyl)-4-[(tetrahydro-2H-pyran-4-ylacetyl)amino]benzamide] | 121 | 6.97 | 7.45 |
| O=C(CN1CCOCC1)Nc1ccc(C(=O)NCc2ccc3nccn3c2)cc1 [Example 80, N-(imidazo[1,2-a]pyridin-6-ylmethyl)-4-[(morpholin-4-ylacetyl)amino]benzamide] | 228 | 5.71 | 19.4 |
| O=C(CCC1CCCC1)Nc1ccc(C(=O)NCc2ccc3nccn3c2)cc1 [Example 81, 4-[(3-cyclopentylpropanoyl)amino]-N-(imidazo[1,2-a]pyridin-6-ylmethyl)benzamide] | 15.5 | 2.68 | 7.1 |
| CC(C)OCC(=O)Nc1ccc(C(=O)NCc2ccc3nccn3c2)cc1 [Example 82, N-(imidazo[1,2-a]pyridin-6-ylmethyl)-4-{[(propan-2-yloxy)acetyl]amino}benzamide] | 357 | 6.42 | 67.9 |
| CC(C)(C)OC(=O)N1CC=C(c2ccc(C(=O)NCc3ccc4nccn4c3)cc2)CC1 [Example 83, tert-butyl 4-{4-[(imidazo[1,2-a]pyridin-6-ylmethyl)carbamoyl]phenyl}-3,6-dihydropyridine-1(2H)-carboxylate] | 899 | 2.3 | 24.3 |
| O=C(CC1CCCC1)Nc1ccc(CNC(=O)c2ccc3nccn3c2)cc1 [Example 84, N-{4-[(cyclopentylacetyl)amino]benzyl}imidazo[1,2-a]pyridine-6-carboxamide] | 1670 | 10.9 | 762 |
| O=C(NCc1ccc2nccn2c1)c1cnc(N2CCc3ccccc3CC2)s1 [Example 85, N-(imidazo[1,2-a]pyridin-6-ylmethyl)-2-(1,2,4,5-tetrahydro-3H-3-benzazepin-3-yl)-1,3-thiazole-5-carboxamide] | 4070 | 1.41 | 2610 |
